Data: US20240408085A1, “COMPOUND FOR DEGRADATION OF BCL-2 FAMILY PROTEINS AND MEDICAL APPLICATION THEREOF” (XIZANG HAISCO PHARMACEUTICAL CO., LTD., priority 2021, published 2024)
pIC50: −log10 of the molar value.

Test system: MOLT-4 cells
Assay: Cell proliferation activity in MOLT-4 cells (72 h, cell viability luminescence)
Type: cell-based, human
Conditions: Homo sapiens, read-out: IC50 for the inhibition of MOLT-4 cell proliferation
Procedure: MOLT-4 cells are acute lymphoblastic leukemia cell lines in humans. The cells were purchased from ATCC. Culture conditions: RPMI-1640+10% FBS+1% penicillin-streptomycin solution. The cells were cultured in a 37° C., 5% CO2 incubator. The cells were plated in a 96-well plate, with 5×10^3 cells/well. After plating, compounds at different concentrations were added and cultured in a 37° C., 5% CO2 incubator for 72 h. After the completion of culture, a reagent (Promega, G7573) for detecting the cell viability was added. The mixture was uniformly mixed for 2 minutes and then incubated at room temperature for 10 minutes. The luminescence signal was detected with a multimode plate reader (BMG, PHERAstar FSX). The luminescence readings were processed using GraphPad Prism 8.0 software and the IC50 values of the compounds for the inhibition of cell proliferation and the maximum inhibition rate were calculated according to formula (2) and formula (3), respectively, wherein Tadministration denotes the cell signal readings obtained after incubation with the compounds for 72 h, and Tvehicle denotes the cell signal readings obtained after incubation with the vehicle control for 72 h.
Calculation of Max inhibition %: after the processing according to formula (2), the inhibition rate of the compounds at the highest concentration was calculated.

Compound	pIC50
Cc1ncsc1-c1ccc([C@H](C)NC(=O)[C@@H]2C[C@@H](O)CN2C(=O)[C@@H](NC(=O)CCCCCC(=O)N2CC3CC2CN3CC[C@H](CSc2ccccc2)Nc2ccc(S(=O)(=O)NC(=O)c3ccc(N4CCN(CC5=C(c6ccc(Cl)cc6)CCC(C)(C)C5)CC4)cc3)cc2S(=O)(=O)C(F)(F)F)C(C)(C)C)cc1 (stereo partly drawn) [Compound 2, (2S,4R)-1-((2S)-2-(7-(5-((R)-3-((4-(N-(4-(4-((4′-chloro-4,4-dimethyl-3,4,5,6-tetrahydro-[1,1′-biphenyl]-2-yl)methyl)piperazin-1-yl)benzoyl)sulfamoyl)-2-((trifluoromethyl)sulfonyl)phenyl)amino)-4-(phenylthio)butyl)-2,5-diazabicyclo[2.2.1]heptan-2-yl)-7-oxoheptanamido)-3,3-dimethylbutanoyl)-4-hydroxy-N—((S)-1-(4-(4-methylthiazol-5-yl)phenyl)ethyl)pyrrolidine-2-carboxamide]	> 6.30
Cc1ncsc1-c1ccc([C@H](C)NC(=O)[C@@H]2C[C@@H](O)CN2C(=O)[C@@H](NC(=O)CCCCCC(=O)N2C[C@@H]3C[C@H]2CN3CC[C@H](CSc2ccccc2)Nc2ccc(S(=O)(=O)NC(=O)c3ccc(N4CCN(CC5=C(c6ccc(Cl)cc6)CCC(C)(C)C5)CC4)cc3)cc2S(=O)(=O)C(F)(F)F)C(C)(C)C)cc1 [Compound 13, (2S,4R)-1-((S)-2-(7-((1S,4S)-5-((R)-3-((4-(N-(4-(4-((4′-chloro-4,4-dimethyl-3,4,5,6-tetrahydro-[1,1′-biphenyl]-2-yl)methyl)piperazin-1-yl)benzoyl)sulfamoyl)-2-((trifluoromethyl)sulfonyl)phenyl)amino)-4-(phenylthio)butyl)-2,5-diazabicyclo[2.2.1]heptan-2-yl)-7-oxoheptanamido)-3,3-dimethylbutanoyl)-4-hydroxy-N—((S)-1-(4-(4-methylthiazol-5-yl)phenyl)ethyl)pyrrolidine-2-carboxamide]	> 6.30
Cc1ncsc1-c1ccc([C@H](C)NC(=O)[C@@H]2C[C@@H](O)CN2C(=O)[C@@H](NC(=O)CCCCCCCC(=O)N2C[C@H]3CN(CC[C@H](CSc4ccccc4)Nc4ccc(S(=O)(=O)NC(=O)c5ccc(N6CCN(CC7=C(c8ccc(Cl)cc8)CCC(C)(C)C7)CC6)cc5)cc4S(=O)(=O)C(F)(F)F)C[C@H]3C2)C(C)(C)C)cc1 [Compound 16, cis-(2S,4R)-1-((S)-2-(9-(5-((R)-3-((4-(N-(4-(4-((4′-chloro-4,4-dimethyl-3,4,5,6-tetrahydro-[1,1′-biphenyl]-2-yl)methyl)piperazin-1-yl)benzoyl)sulfamoyl)-2-((trifluoromethyl)sulfonyl)phenyl)amino)-4-(phenylthio)butyl)hexahydropyrrolo[3,4-c]pyrrol-2(1H)-yl)-9-oxononanamido)-3,3-dimethylbutanoyl)-4-hydroxy-N—((S)-1-(4-(4-methylthiazol-5-yl)phenyl)ethyl)pyrrolidine-2-carboxamide]	> 6.30
Cc1ncsc1-c1ccc([C@H](C)NC(=O)[C@@H]2C[C@@H](O)CN2C(=O)[C@@H](NC(=O)CCCCCC(=O)N2C[C@H]3CN(CC[C@H](CSc4ccccc4)Nc4ccc(S(=O)(=O)NC(=O)c5ccc(N6CCN(CC7=C(c8ccc(Cl)cc8)CCC8(CC8)C7)CC6)cc5)cc4S(=O)(=O)C(F)(F)F)C[C@H]3C2)C(C)(C)C)cc1 [Compound 18, cis-(2S,4R)-1-((S)-2-(7-(5-((R)-3-((4-(N-(4-(4-((6-(4-chlorophenyl)spiro[2.5]oct-5-en-5-yl)methyl)piperazin-1-yl)benzoyl)sulfamoyl)-2-((trifluoromethyl)sulfonyl)phenyl)amino)-4-(phenylthio)butyl)hexahydropyrrolo[3,4-c]pyrrol-2(1H)-yl)-7-oxoheptanamido)-3,3-dimethylbutanoyl)-4-hydroxy-N—((S)-1-(4-(4-methylthiazol-5-yl)phenyl)ethyl)pyrrolidine-2-carboxamide]	> 6.30
Cc1ncsc1-c1ccc([C@H](C)NC(=O)[C@@H]2C[C@@H](O)CN2C(=O)[C@@H](NC(=O)CCCCCC(=O)N2C[C@@H]3C[C@H]2CN3CC[C@H](CSc2ccccc2)Nc2ccc(S(=O)(=O)NC(=O)c3ccc(N4CCN(CC5=C(c6ccc(Cl)cc6F)CCC(C)(C)C5)CC4)cc3)cc2S(=O)(=O)C(F)(F)F)C(C)(C)C)cc1 [Compound 20, (2S,4R)-1-((S)-2-(7-((1S,4S)-5-((R)-3-((4-(N-(4-(4-((4′-chloro-2′-fluoro-4,4-dimethyl-3,4,5,6-tetrahydro-[1,1′-biphenyl]-2-yl)methyl)piperazin-1-yl)benzoyl)sulfamoyl)-2-((trifluoromethyl)sulfonyl)phenyl)amino)-4-(phenylthio)butyl)-2,5-diazabicyclo[2.2.1]heptan-2-yl)-7-oxoheptanamido)-3,3-dimethylbutanoyl)-4-hydroxy-N—((S)-1-(4-(4-methylthiazol-5-yl)phenyl)ethyl)pyrrolidine-2-carboxamide]	> 6.30
Cc1ncsc1-c1ccc([C@H](C)NC(=O)[C@@H]2C[C@@H](O)CN2C(=O)[C@@H](NC(=O)CCCCCCC(=O)N2C[C@H]3CN(CC[C@H](CSc4ccccc4)Nc4ccc(S(=O)(=O)NC(=O)c5ccc(N6CCN(CC7=C(c8ccc(Cl)cc8)CCC8(CC8)C7)CC6)cc5)cc4S(=O)(=O)C(F)(F)F)C[C@H]3C2)C(C)(C)C)cc1 [Compound 22, cis-(2S,4R)-1-((S)-2-(8-(5-((R)-3-((4-(N-(4-(4-((6-(4-chlorophenyl)spiro[2.5]oct-5-en-5-yl)methyl)piperazin-1-yl)benzoyl)sulfamoyl)-2-((trifluoromethyl)sulfonyl)phenyl)amino)-4-(phenylthio)butyl)hexahydropyrrolo[3,4-c]pyrrol-2(1H)-yl)-8-oxooctanamido)-3,3-dimethylbutanoyl)-4-hydroxy-N—((S)-1-(4-(4-methylthiazol-5-yl)phenyl)ethyl)pyrrolidine-2-carboxamide]	> 6.30

The next lines start with the values.

pIC50	Compound
> 6.30	Cc1ncsc1-c1ccc([C@H](C)NC(=O)[C@@H]2C[C@@H](O)CN2C(=O)[C@@H](NC(=O)CCCCCC(=O)N2CCN(CC[C@H](CSc3ccccc3)Nc3ccc(S(=O)(=O)NC(=O)c4ccc(N5CCN(CC6=C(c7ccc(Cl)cc7)CCOC6)CC5)cc4)cc3S(=O)(=O)C(F)(F)F)CC2)C(C)(C)C)cc1 [Compound 5, (2S,4R)-1-((S)-2-(7-(4-((R)-3-((4-(N-(4-(4-((4-(4-chlorophenyl)-5,6-dihydro-2H-pyran-3-yl)methyl)piperazin-1-yl)benzoyl)sulfamoyl)-2-((trifluoromethyl)sulfonyl)phenyl)amino)-4-(phenylthio)butyl)piperazin-1-yl)-7-oxoheptanamido)-3,3-dimethylbutanoyl)-4-hydroxy-N—((S)-1-(4-(4-methylthiazol-5-yl)phenyl)ethyl)pyrrolidine-2-carboxamide]
> 6.30	Cc1ncsc1-c1ccc([C@H](C)NC(=O)[C@@H]2C[C@@H](O)CN2C(=O)[C@@H](NC(=O)CCCCCC(=O)N2CCN(CC[C@H](CSc3ccccc3)Nc3ccc(S(=O)(=O)NC(=O)c4ccc(N5CCN(CC6=C(c7ccc(Cl)cc7)CCC(C)(C)C6)CC5)nc4)cc3S(=O)(=O)C(F)(F)F)CC2)C(C)(C)C)cc1 [Compound 7, 6-(4-((4′-chloro-4,4-dimethyl-3,4,5,6-tetrahydro-[1,1′-biphenyl]-2-yl)methyl)piperazin-1-yl)-N-((4-(((R)-4-(4-(7-(((S)-1-((2S,4R)-4-hydroxy-2-(((S)-1-(4-(4-methylthiazol-5-yl)phenyl)ethyl)carbamoyl)pyrrolidin-1-yl)-3,3-dimethyl-1-oxobutan-2-yl)amino)-7-oxoheptanoyl)piperazin-1-yl)-1-(phenylthio)butan-2-yl)amino)-3-((trifluoromethyl)sulfonyl)phenyl)sulfonyl)nicotinamide]
> 6.30	Cc1ncsc1-c1ccc([C@H](C)NC(=O)[C@@H]2C[C@@H](O)CN2C(=O)[C@@H](NC(=O)CCCCCC(=O)N2CCN(CC[C@H](CSc3ccccc3)Nc3ccc(S(=O)(=O)NC(=O)c4ccc(N5CCN(CC6=C(c7ccc(Cl)cc7F)CCC(C)(C)C6)CC5)cc4)cc3S(=O)(=O)C(F)(F)F)CC2)C(C)(C)C)cc1 [Compound 12, (2S,4R)-1-((S)-2-(7-(4-((R)-3-((4-(N-(4-(4-((4′-chloro-2′-fluoro-4,4-dimethyl-3,4,5,6-tetrahydro-[1,1′-biphenyl]-2-yl)methyl)piperazin-1-yl)benzoyl)sulfamoyl)-2-((trifluoromethyl)sulfonyl)phenyl)amino)-4-(phenylthio)butyl)piperazin-1-yl)-7-oxoheptanamido)-3,3-dimethylbutanoyl)-4-hydroxy-N—((S)-1-(4-(4-methylthiazol-5-yl)phenyl)ethyl)pyrrolidine-2-carboxamide]
> 6.30	Cc1ncsc1-c1ccc([C@H](C)NC(=O)[C@@H]2C[C@@H](O)CN2C(=O)[C@@H](NC(=O)CCCCCCC(=O)N2C[C@H]3CN(CC[C@H](CSc4ccccc4)Nc4ccc(S(=O)(=O)NC(=O)c5ccc(N6CCN(CC7=C(c8ccc(Cl)cc8)CCC(C)(C)C7)CC6)cc5)cc4S(=O)(=O)C(F)(F)F)C[C@H]3C2)C(C)(C)C)cc1 [Compound 17, cis-(2S,4R)-1-((S)-2-(8-(5-((R)-3-((4-(N-(4-(4-((4′-chloro-4,4-dimethyl-3,4,5,6-tetrahydro-[1,1′-biphenyl]-2-yl)methyl)piperazin-1-yl)benzoyl)sulfamoyl)-2-((trifluoromethyl)sulfonyl)phenyl)amino)-4-(phenylthio)butyl)hexahydropyrrolo[3,4-c]pyrrol-2(1H)-yl)-8-oxooctanamido)-3,3-dimethylbutanoyl)-4-hydroxy-N—((S)-1-(4-(4-methylthiazol-5-yl)phenyl)ethyl)pyrrolidine-2-carboxamide]
